System: liver fibrosis gene panel (770 genes)
Experiment: Nanostring nCounter Fibrosis panel gene expression in liver of DEN-injected mice
Assay type: in vivo, mouse
Experimental: Nanostring Analysis. RNA was extracted from paired liver and tumor tissue from vehicle, Compound I-1 (100 mg/kg) and Compound I-32 (100 mg/kg) treated mice using an RNeasy kit (Qiagen, Calif., USA) as per manufacturer's protocol. All RNA samples passed the BioAnalyzer quality control test. The expression of target genes in liver and tumor were analyzed using the nCounter Fibrosis and Cancer Panel (NanoString Technologies, Inc., WA, USA), respectively according to manufacturer's protocol at the McMaster Genomics Facility. Technical and biological normalization against global geometric mean was performed in nSolver 4.0 software (NanoString Technologies). Technical normalization was performed in the nSolver software (version 4.0.70) by normalizing sample target raw counts to the geometric mean of positive control spike-ins. Biological normalization was performed by normalizing sample target raw counts to the geometric mean of selected housekeeping genes (Ppia, Nubp1, Nol7, Armh3, Rplp0, Cnot10, Pgk1, and Acad9). Pathway scores were calculated as the first principal component of the normalized expression values for all genes in each pathway and samples were compiled according to experimental groups to determine average pathway scores. Statistical significance was calculated between experimental groups using multiple t-tests and p-values were corrected for multiple comparisons using Benjamin-Hochberg false discovery rate.
Molecular analysis. To identify the pathways modulated in the liver and tumor tissue, nanostring analysis of fibrosis and cancer, pathways, respectively were completed in an n=8 mice treated with vehicle or Compound I-32 or Compound I-1 at 100 mg/kg.

Compound: CC(C)(CCCCc1ccc(CCCCC(C)(C)C(=O)O)cc1)C(=O)O [Compound I-1, 6-[4-(5-carboxy-5-methylhexyl)-phenyl]-2,2-dimethylhexanoic acid]
- number of genes downregulated (100 mg/kg, 4 weeks): 170
- number of genes upregulated (100 mg/kg, 4 weeks): 86
- number of genes with altered expression relative to vehicle controls (770 genes measured) (100 mg/kg, 4 weeks): 256
- Casp7 Log2FC (NM_00761-1, 100 mg/kg, vs vehicle): −0.522
- Adh1 Log2FC (NM_007409, 100 mg/kg, vs vehicle): 0.603
- Aldh3a2 Log2FC (NM_007437, 100 mg/kg, vs vehicle): 1.1
- Ap1s1 Log2FC (NM_007457, 100 mg/kg, vs vehicle): 0.242
- Apoa4 Log2FC (NM_007468, 100 mg/kg, vs vehicle): −4.07
- Ctnnb1 Log2FC (NM_007614, 100 mg/kg, vs vehicle): −0.17
- Cd36 Log2FC (NM_007643, 100 mg/kg, vs vehicle): 1.32
- Cdh2 Log2FC (NM_007664, 100 mg/kg, vs vehicle): −0.164
- Cebpa Log2FC (NM_007678, 100 mg/kg, vs vehicle): −0.363
- Cfi Log2FC (NM_007686, 100 mg/kg, vs vehicle): −0.56
- Chil1 Log2FC (NM_007695, 100 mg/kg, vs vehicle): 2.06
- Col1a1 Log2FC (NM_007742, 100 mg/kg, vs vehicle): −1.21
- Col1a2 Log2FC (NM_007743, 100 mg/kg, vs vehicle): −0.924
- Cox6a1 Log2FC (NM_007748, 100 mg/kg, vs vehicle): 0.432
- Cox7c Log2FC (NM_007749, 100 mg/kg, vs vehicle): 0.501
- Crp Log2FC (NM_007768, 100 mg/kg, vs vehicle): −0.931
- Cybb Log2FC (NM_007807, 100 mg/kg, vs vehicle): −0.522
- Cyp7a1 Log2FC (NM_007824, 100 mg/kg, vs vehicle): −1.07
- Eef2k Log2FC (NM_007908, 100 mg/kg, vs vehicle): 0.422
- Ephx2 Log2FC (NM_007940, 100 mg/kg, vs vehicle): 0.794
- F5 Log2FC (NM_007976, 100 mg/kg, vs vehicle): −0.363
- Fas Log2FC (NM_007987, 100 mg/kg, vs vehicle): 0.528
- Fasn Log2FC (NM_007988, 100 mg/kg, vs vehicle): 0.831
- Slc37a4 Log2FC (NM_008063, 100 mg/kg, vs vehicle): −1.17
- Gas1 Log2FC (NM_008086, 100 mg/kg, vs vehicle): −0.608
- Gpc4 Log2FC (NM_008150, 100 mg/kg, vs vehicle): −0.469
- Gpr65 Log2FC (NM_008152, 100 mg/kg, vs vehicle): −0.447
- Hadh Log2FC (NM_008212, 100 mg/kg, vs vehicle): 0.28
- Hmgcs2 Log2FC (NM_008256, 100 mg/kg, vs vehicle): 0.291
- Hsd11b1 Log2FC (NM_008288, 100 mg/kg, vs vehicle): −1.33
- Hsd17b4 Log2FC (NM_008292, 100 mg/kg, vs vehicle): 0.637
- Hsp90ab1 Log2FC (NM_008302, 100 mg/kg, vs vehicle): 0.407
- Irf8 Log2FC (NM_008320, 100 mg/kg, vs vehicle): −0.55
- ll10ra Log2FC (NM_008348, 100 mg/kg, vs vehicle): −0.737
- Irf1 Log2FC (NM_008390, 100 mg/kg, vs vehicle): −0.32
- Itch Log2FC (NM_008395, 100 mg/kg, vs vehicle): −0.277
- Lpl Log2FC (NM_008509, 100 mg/kg, vs vehicle): 1.98
- Lrp1 Log2FC (NM_008512, 100 mg/kg, vs vehicle): −0.339
- Cd180 Log2FC (NM_008533, 100 mg/kg, vs vehicle): −0.776
- Masp1 Log2FC (NM_008555, 100 mg/kg, vs vehicle): −0.24
- Anapc1 Log2FC (NM_008569, 100 mg/kg, vs vehicle): −0.378
- Mmp12 Log2FC (NM_008605, 100 mg/kg, vs vehicle): −1.53
- Mmp14 Log2FC (NM_008608, 100 mg/kg, vs vehicle): −0.522
- Ncf4 Log2FC (NM_008677, 100 mg/kg, vs vehicle): −0.746
- Nedd8 Log2FC (NM_008683, 100 mg/kg, vs vehicle): 0.139
- Nfkb1 Log2FC (NM_008689, 100 mg/kg, vs vehicle): −0.241
- Pcx Log2FC (NM_008797, 100 mg/kg, vs vehicle): −0.57
- Plcb3 Log2FC (NM_008874, 100 mg/kg, vs vehicle): −0.321
- Plg Log2FC (NM_008877, 100 mg/kg, vs vehicle): −0.393
- Ppm1a Log2FC (NM_008910, 100 mg/kg, vs vehicle): 0.148
- Map2k1 Log2FC (NM_008927, 100 mg/kg, vs vehicle): −0.145
- Psmc3 Log2FC (NM_008948, 100 mg/kg, vs vehicle): 0.145
- Rac1 Log2FC (NM_009007, 100 mg/kg, vs vehicle): −0.093
- Saa1/2 Log2FC (NM_009117, 100 mg/kg, vs vehicle): −3.03
- Scd1 Log2FC (NM_009127, 100 mg/kg, vs vehicle): 0.478
- Sem1 Log2FC (NM_009169, 100 mg/kg, vs vehicle): 0.385
- Spp1 Log2FC (NM_009263, 100 mg/kg, vs vehicle): −0.879
- Ssr4 Log2FC (NM_009279, 100 mg/kg, vs vehicle): −0.321
- Tgfbr1 Log2FC (NM_009370, 100 mg/kg, vs vehicle): −0.445
- Traf2 Log2FC (NM_009422, 100 mg/kg, vs vehicle): −0.247
- Tnfsf10 Log2FC (NM_009425, 100 mg/kg, vs vehicle): −0.823

Reference: patent publication US11730712B2, “Functionalized long-chain hydrocarbon mono- and di-carboxylic acids and derivatives thereof, and their use for the prevention or treatment of disease” (ESPERVITA THERAPEUTICS, INC., priority 2021, dated 2023)
